Laboratory results taken from patent publication US9889099B2, “Method and composition for enhancing milk production” (LAND O'LAKES, INC., priority 1999, dated 2018).
Marks after values point to notes of the source that are not given here.

Tested on: lactating cows
Assay: Example 2: 3x3 Latin square feeding of lactating cows, control ration plus about 50 or 100 g sorbitol per day
Assay type: in vivo, Holstein cows
Conditions: for Milk Protein / Lactose / Total Solids / Dry Matter Intake / Milk Production: last 14 of 28 days
Source text: In this example, fifteen Holstein cows (nine multiparous and six primiparous) averaging about sixty-five days in milk each, and thus in early lactation, were arranged in a 3×3 Latin square design, also known as the switch back design, that was replicated five times. Each cow was randomly allotted to the control ration treatment, to the first test ration treatment, or to the second test ration treatment. In the 3×3 Latin square design, each cow is cycled through each treatment, namely, the control ration treatment, the first test ration treatment, and the second test ration treatment. This permits each cow to act as a control for standardizing the testing differences observed between each treatment for each cow. Sufficient time between feeding treatments (between the control ration treatment, the first ration test treatment, and the second test ration treatment) was allowed to permit normalization of each cow before being switched to a different treatment. The cows were blocked by parity milk production, based upon the level of milk production by individual cows, after being in milk for forty-five days. After being blocked by parity milk production, the cows were randomly allotted to the control ration feeding, the first test ration feeding, or the second test ration feeding. The components of the control ration used in this example are shown in Table 5: The control ration was placed in the feeding troughs of the cattle once daily in the morning. When the first test ration was to be provided to the test cattle, sorbitol was top dressed and lightly mixed into the control ration in the feeding trough of each cow being supplied with the first test ration dosage of about 50 grams of sorbitol per cow per day, about one hour after the control ration was placed in the feeding trough. When the second test ration was to be provided to the test cattle, sorbitol was top dressed and lightly mixed into the control ration in the feeding trough of each cow being supplied with the second test ration dosage of about 100 grams of sorbitol per cow per day, about one hour after the control ration was placed in the feeding trough. Then, the control ration, the first test ration, and the second test ration were lightly mixed in front of the cows six times per day to encourage additional feed ingestion by the cattle. Leftover rations from the previous days feeding were collected and weighed from each feeding trough prior to feeding the test cattle the next day. The cows received a sufficient amount of the control ration to ensure that at least about ten weight percent, based upon the amount of control ration provided at the beginning of each day, remained per day for each test cow. The amount of sorbitol that was top dressed in the control ration to form the first test ration was adjusted upward to account for the excess of control ration provided to ensure that the cows ingested the first test ration dosage of about 50 grams of sorbitol per cow per day. Likewise, the amount of sorbitol that was top dressed in the control ration to form the second test ration was adjusted upward to account for the excess of control ration provided to ensure that the cows ingested the second test ration dosage of about 100 grams of sorbitol per cow per day. Feed refusals were measured daily, and water was supplied ad libitum. Each test cow received routine care and management consistent with appropriate recommendations in the Guide for the Care and Use of Agricultural Animals in Agricultural Research and Teaching (1st edition, March 1988). Each cow was milked three times daily and the weight of produced milk was recorded at each milking. The milk was sampled once per day (⅓ of the sample volume from each milking) and was analyzed for protein, fat, lactose, and total solids, in accordance with the property determination and characterization techniques presented above. […]

For OC[C@@H](O)[C@@H](O)[C@H](O)[C@@H](O)CO [sorbitol], the “Milk Protein” value (about 50 g sorbitol/day/cow, Block 1, control 2.23, P >0.10) was 2.22 pounds/day/cow, the Lactose (about 50 g sorbitol/day/cow, Block 1, control 3.99, P >0.10) was 4.10 pounds/day/cow and the “Total Solids” value (about 50 g sorbitol/day/cow, Block 1, control 9.51, P >0.10) was 9.77 pounds/day/cow. The “Dry Matter Intake” value (about 50 g sorbitol/day/cow, Block 1, control 45.0, P >0.10) was 44.2 pounds/day/cow, the “Milk Protein” value (about 50 g sorbitol/day/cow, Block 2, control 2.13, P >0.10) was 2.18 pounds/day/cow and the Lactose (about 50 g sorbitol/day/cow, Block 2, control 3.72, P 0.07) was 3.89^b pounds/day/cow. For the same compound, the “Total Solids” value (about 50 g sorbitol/day/cow, Block 2, control 8.95, P >0.10) was 9.48 pounds/day/cow, the “Dry Matter Intake” value (about 50 g sorbitol/day/cow, Block 2, control 42.9, P 0.04) was 45.3^b pounds/day/cow and the “Milk Production” value (about 50 g sorbitol/day/cow, Block 2, control 75.3, P 0.10) was 78.0^b pounds/day/cow. The “Milk Protein” value (about 50 g sorbitol/day/cow, Block 3, control 2.62, P >0.10) was 2.89 pounds/day/cow, the Lactose (about 50 g sorbitol/day/cow, Block 3, control 4.32, P >0.10) was 4.84 pounds/day/cow and the “Total Solids” value (about 50 g sorbitol/day/cow, Block 3, control 10.70, P >0.10) was 11.53 pounds/day/cow. The “Dry Matter Intake” value (about 50 g sorbitol/day/cow, Block 3, control 54.4, P 0.10) was 60.7^b pounds/day/cow, the “Milk Production” value (about 50 g sorbitol/day/cow, Block 3, control 89.0, P 0.28) was 98.8 pounds/day/cow and the “Milk Protein” value (about 50 g sorbitol/day/cow, Block 4, control 2.83, P 0.08) was 3.18^b pounds/day/cow. For the same compound, the Lactose (about 50 g sorbitol/day/cow, Block 4, control 4.56, P 0.06) was 4.88^b pounds/day/cow, the “Total Solids” value (about 50 g sorbitol/day/cow, Block 4, control 11.46, P 0.09) was 12.35^b pounds/day/cow and the “Dry Matter Intake” value (about 50 g sorbitol/day/cow, Block 4, control 61.0, P >0.10) was 62.6 pounds/day/cow. The “Milk Production” value (about 50 g sorbitol/day/cow, Block 4, control 97.6, P 0.07) was 102.9^b pounds/day/cow, the “Milk Protein” value (about 50 g sorbitol/day/cow, Block 5, control 3.35, P >0.10) was 3.39 pounds/day/cow and the Lactose (about 50 g sorbitol/day/cow, Block 5, control 5.70, P 0.05) was 5.86^b pounds/day/cow. The “Total Solids” value (about 50 g sorbitol/day/cow, Block 5, control 13.46, P >0.10) was 13.83 pounds/day/cow, the “Dry Matter Intake” value (about 50 g sorbitol/day/cow, Block 5, control 65.1, P >0.10) was 66.6 pounds/day/cow and the “Milk Production” value (about 50 g sorbitol/day/cow, Block 5, control 119.1, P 0.10) was 122.4^b pounds/day/cow. For the same compound, the “Milk Protein” value (about 50 g sorbitol/day/cow, all cows, control 2.63, P >0.10) was 2.77 pounds/day/cow, the Lactose (about 50 g sorbitol/day/cow, all cows, control 4.46, P 0.04) was 4.71^b pounds/day/cow and the “Total Solids” value (about 50 g sorbitol/day/cow, all cows, control 10.82, P 0.07) was 11.39^b pounds/day/cow. For the same compound, the “Dry Matter Intake” value (about 50 g sorbitol/day/cow, all cows, control 53.7, P 0.05) was 55.9^b pounds/day/cow, the “Milk Production” value (about 50 g sorbitol/day/cow, all cows, control 92.9, P 0.05) was 97.5^b pounds/day/cow and the “Milk Protein” value (about 50 g sorbitol/day/cow, multiparous cows only, control 2.93, P 0.08) was 3.15^b pounds/day/cow. For the same compound, the Lactose (about 50 g sorbitol/day/cow, multiparous cows only, control 4.86, P 0.07) was 5.19^b pounds/day/cow, the “Total Solids” value (about 50 g sorbitol/day/cow, multiparous cows only, control 11.87, P >0.10) was 12.57 pounds/day/cow and the “Dry Matter Intake” value (about 50 g sorbitol/day/cow, multiparous cows only, control 60.2, P 0.09) was 63.3^b pounds/day/cow. For the same compound, the “Milk Production” value (about 50 g sorbitol/day/cow, multiparous cows only, control 101.9, P 0.07) was 108.0^b pounds/day/cow, the “Milk Protein” value (about 50 g sorbitol/day/cow, primiparous cows only, control 2.18, P >0.10) was 2.20 pounds/day/cow and the Lactose (about 50 g sorbitol/day/cow, primiparous cows only, control 3.85, P >0.10) was 3.99 pounds/day/cow. For the same compound, the “Total Solids” value (about 50 g sorbitol/day/cow, primiparous cows only, control 9.23, P >0.10) was 9.63 pounds/day/cow, the “Dry Matter Intake” value (about 50 g sorbitol/day/cow, primiparous cows only, control 44.0, P >0.10) was 44.7 pounds/day/cow and the “Milk Production” value (about 50 g sorbitol/day/cow, primiparous cows only, control 79.5, P >0.10) was 81.8 pounds/day/cow. The “Milk Protein” value (about 100 g sorbitol/day/cow, Block 1, control 2.23, P >0.10) was 2.19 pounds/day/cow, the Lactose (about 100 g sorbitol/day/cow, Block 1, control 3.99, P >0.10) was 4.07 pounds/day/cow and the “Total Solids” value (about 100 g sorbitol/day/cow, Block 1, control 9.51, P >0.10) was 9.94 pounds/day/cow. The “Dry Matter Intake” value (about 100 g sorbitol/day/cow, Block 1, control 45.0, P >0.10) was 44.4 pounds/day/cow, the “Milk Production” value (about 100 g sorbitol/day/cow, Block 1, control 83.7, P >0.10) was 85.2 pounds/day/cow and the “Milk Protein” value (about 100 g sorbitol/day/cow, Block 2, control 2.13, P >0.10) was 2.12 pounds/day/cow. For the same compound, the Lactose (about 100 g sorbitol/day/cow, Block 2, control 3.72, P 0.07) was 3.82^ab pounds/day/cow, the “Total Solids” value (about 100 g sorbitol/day/cow, Block 2, control 8.95, P >0.10) was 9.29 pounds/day/cow and the “Dry Matter Intake” value (about 100 g sorbitol/day/cow, Block 2, control 42.9, P 0.04) was 42.6^ab pounds/day/cow. The “Milk Production” value (about 100 g sorbitol/day/cow, Block 2, control 75.3, P 0.10) was 77.1^ab pounds/day/cow, the “Milk Protein” value (about 100 g sorbitol/day/cow, Block 3, control 2.62, P >0.10) was 2.85 pounds/day/cow and the Lactose (about 100 g sorbitol/day/cow, Block 3, control 4.32, P >0.10) was 4.86 pounds/day/cow. The “Total Solids” value (about 100 g sorbitol/day/cow, Block 3, control 10.70, P >0.10) was 11.62 pounds/day/cow, the “Dry Matter Intake” value (about 100 g sorbitol/day/cow, Block 3, control 54.4, P 0.10) was 60.1^ab pounds/day/cow and the “Milk Production” value (about 100 g sorbitol/day/cow, Block 3, control 89.0, P 0.28) was 99.0 pounds/day/cow. The “Milk Protein” value (about 100 g sorbitol/day/cow, Block 4, control 2.83, P 0.08) was 3.01^ab pounds/day/cow, the Lactose (about 100 g sorbitol/day/cow, Block 4, control 4.56, P 0.06) was 4.57^ab pounds/day/cow and the “Total Solids” value (about 100 g sorbitol/day/cow, Block 4, control 11.46, P 0.09) was 11.01^ab pounds/day/cow. The “Dry Matter Intake” value (about 100 g sorbitol/day/cow, Block 4, control 61.0, P >0.10) was 61.2 pounds/day/cow, the “Milk Production” value (about 100 g sorbitol/day/cow, Block 4, control 97.6, P 0.07) was 95.9^ab pounds/day/cow and the “Milk Protein” value (about 100 g sorbitol/day/cow, Block 5, control 3.35, P >0.10) was 3.36 pounds/day/cow. For the same compound, the Lactose (about 100 g sorbitol/day/cow, Block 5, control 5.70, P 0.05) was 5.78^ab pounds/day/cow, the “Total Solids” value (about 100 g sorbitol/day/cow, Block 5, control 13.46, P >0.10) was 13.78 pounds/day/cow and the “Dry Matter Intake” value (about 100 g sorbitol/day/cow, Block 5, control 65.1, P >0.10) was 65.8 pounds/day/cow. For the same compound, the “Milk Production” value (about 100 g sorbitol/day/cow, Block 5, control 119.1, P 0.10) was 121.0^ab pounds/day/cow, the “Milk Protein” value (about 100 g sorbitol/day/cow, all cows, control 2.63, P >0.10) was 2.71 pounds/day/cow and the Lactose (about 100 g sorbitol/day/cow, all cows, control 4.46, P 0.04) was 4.62^ab pounds/day/cow. For the same compound, the “Total Solids” value (about 100 g sorbitol/day/cow, all cows, control 10.82, P 0.07) was 11.12^ab pounds/day/cow, the “Dry Matter Intake” value (about 100 g sorbitol/day/cow, all cows, control 53.7, P 0.05) was 54.8^ab pounds/day/cow and the “Milk Production” value (about 100 g sorbitol/day/cow, all cows, control 92.9, P 0.05) was 95.6^ab pounds/day/cow. For the same compound, the “Milk Protein” value (about 100 g sorbitol/day/cow, multiparous cows only, control 2.93, P 0.08) was 3.07^ab pounds/day/cow, the Lactose (about 100 g sorbitol/day/cow, multiparous cows only, control 4.86, P 0.07) was 5.07^ab pounds/day/cow and the “Total Solids” value (about 100 g sorbitol/day/cow, multiparous cows only, control 11.87, P >0.10) was 12.13 pounds/day/cow. For the same compound, the “Dry Matter Intake” value (about 100 g sorbitol/day/cow, multiparous cows only, control 60.2, P 0.09) was 62.3^ab pounds/day/cow, the “Milk Production” value (about 100 g sorbitol/day/cow, multiparous cows only, control 101.9, P 0.07) was 105.3^ab pounds/day/cow and the “Milk Protein” value (about 100 g sorbitol/day/cow, primiparous cows only, control 2.18, P >0.10) was 2.16 pounds/day/cow. The Lactose (about 100 g sorbitol/day/cow, primiparous cows only, control 3.85, P >0.10) was 3.95 pounds/day/cow, the “Total Solids” value (about 100 g sorbitol/day/cow, primiparous cows only, control 9.23, P >0.10) was 9.62 pounds/day/cow and the “Dry Matter Intake” value (about 100 g sorbitol/day/cow, primiparous cows only, control 44.0, P >0.10) was 43.5 pounds/day/cow. The “Milk Production” value (about 100 g sorbitol/day/cow, primiparous cows only, control 79.5, P >0.10) was 81.2 pounds/day/cow, the “improvement of milk production rate versus cows fed only the control ration” value (first test ration, about 50 g sorbitol per day, all cows) was 4.6 pounds per day per cow and the “improvement of milk production rate versus cows fed only the control ration” value (second test ration, about 100 g sorbitol per day, all cows) was 2.7 pounds per day per cow.
